Source: patent US9067898B1, “Isothiazole derivatives as GPR120 agonists for the treatment of type II diabetes” (Janssen Pharmaceutica NV, priority 2014, dated 2015)

tested on: C57bl/6J mice; test: C57bl6 mouse OGTT; assay type: in vivo; settings: 3 mg/kg dosed 30 min before glucose PO 3 g/kg
Method: Male, C57bl/6J Mice were ordered in at 8 weeks of age from Jackson Labs. Individual mice weighed anywhere in the range of 25-30 grams on study day. The mice were fasted, with removal of food occurring at 7 am on the morning of the study. Animals were moved into the room at 10:00 am, to give them time to acclimate. Glucose (insulin syringes) was drawn up either the night before or the morning of the study. Glucose was dosed (IP) at 1.5 g/kg at 7.5 ml/kg (20% glucose straight TEKNOVA, 250 ml sterile bottle w/catalogue number G0525). Test compounds were kept spinning and were only drawn into the syringes prior to study commencement. Animals were bled via tail snip to determine basal glucose levels prior to dosing of treatments. An Ascensia BREEZE Blood Glucose Monitoring System by Bayer (using unique 10-test disks) was used for determining glucose levels. The bleeds started at approximately 12:45 pm and dosing started, at 1-minute intervals, immediately after. All groups were dosed 30 minutes prior to glucose administration at a dose volume of 10 ml/kg (the dose volume was calculated separately for each individual animal). Thirty minutes after the first dose animals were bled again for a second baseline, or T=0, and immediately dosed with glucose via an i.p. injection. The exact dose volume for glucose was also calculated separately for each individual animal. Glucose measurements were taken at −30 min prior to compound dose, at t=0 (immediately prior to glucose dose), and at 15, 30, 45, 60, 90 min post glucose dose.
Glucose values were entered into an Excel sheet and graphed in GraphPad Prism. The following were calculated from Prism: Change from −30 to 0 BSLN Glucose, Raw Glucose AUC −30 to 90 min, Delta Glucose AUC −30 to 90 min, Raw Glucose AUC 0 to 90 min, Delta Glucose AUC 0 to 90 min.
The assay design is the same as that described above for the C57bl6 mouse IPGTT. The difference is that glucose was dosed PO at 3 g/kg, 7.5 ml/kg of 40% glucose.
Representative compounds of the present invention were tested according to the procedures as described in Biological Example 4, above with results as listed in Table 3, below. […] Where a compound was tested more than once, each result is listed individually.

Molecule	C57 OGTT 3 mg/kg
OCCCc1ccc(OCc2c(Cl)nsc2-c2ccc(Cl)cc2)c(F)c1F [Cpd 102, 3-(4-((3-chloro-5-(4-chlorophenyl)isothiazol-4-yl)methoxy)-2,3-difluorophenyl)propan-1-ol]	−32
3-(4-[[3-(4-ethylphenyl)-5-(trifluoromethyl)-1,2-thiazol-4-yl]methoxy]-1-benzothiophen-7-yl)propanoic acid [Cpd 92]	−39
Cc1c(CCC(=O)O)ccc(OCc2c(-c3ccc(Cl)cc3)nsc2C(F)(F)F)c1C [Cpd 142, 3-(4-((3-(4-chlorophenyl)-5-(trifluoromethyl)isothiazol-4-yl)methoxy)-2,3-dimethylphenyl)propanoic acid]	−49
CCc1ccc(-c2snc(Cl)c2COc2ccc(CCC(=O)O)c(C)c2C)cc1 [Cpd 85, 3-(4-[[3-chloro-5-(4-ethylphenyl)-1,2-thiazol-4-yl]methoxy]-2,3-dimethylphenyl)propanoic acid]	−49
O=C(O)CCc1cc(F)c(OCc2c(C3CCCC3)nsc2C(F)(F)F)c(F)c1 [Cpd 71, 3-(4-[[3-cyclopentyl-5-(trifluoromethyl)-1,2-thiazol-4-yl]methoxy]-3,5-difluorophenyl)propanoic acid]	−37
OCCCc1cc(F)c(OCc2c(-c3ccc(Cl)cc3)nsc2C(F)(F)F)c(F)c1 [Cpd 100, 3-(4-[[3-(4-chlorophenyl)-5-(trifluoromethyl)-1,2-thiazol-4-yl]methoxy]-3,5-difluorophenyl)propan-1-ol]	−39

molecular target: T1, short form of the GPR120 receptor (GPR120S) (Homo sapiens, UniProt Q5NUL3); test: Human GPR120 DiscoveRx PathHunter Beta-Arrestin assay, Procedure β-arrestin B; assay type: cell-based; settings: PathHunter CHO-K1 GPR120S β-Arrestin cell line, 5000 cells/well, read-out: hGPR120 β-arrestin B EC50
T1 construct: host or cells: PathHunter CHO-K1 GPR120S β-Arrestin Cell Line
Outline: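 PathHunter CHO-K1 β-arrestin cells expressed long-form GPR120 (Procedure A, 3000 cells/well) or short-form GPR120 (Procedure B, 5000 cells/well). Compounds were serially diluted from 25 µM and incubated 90 min at 37 °C in HBSS/20 mM HEPES/0.1% BSA, pH 7.4. Luminescence was read after 60 min detection at RT; EC50 comes from % activity versus positive control, Hill slope fixed at 1.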

T1 sequence (Q5NUL3 whole entry): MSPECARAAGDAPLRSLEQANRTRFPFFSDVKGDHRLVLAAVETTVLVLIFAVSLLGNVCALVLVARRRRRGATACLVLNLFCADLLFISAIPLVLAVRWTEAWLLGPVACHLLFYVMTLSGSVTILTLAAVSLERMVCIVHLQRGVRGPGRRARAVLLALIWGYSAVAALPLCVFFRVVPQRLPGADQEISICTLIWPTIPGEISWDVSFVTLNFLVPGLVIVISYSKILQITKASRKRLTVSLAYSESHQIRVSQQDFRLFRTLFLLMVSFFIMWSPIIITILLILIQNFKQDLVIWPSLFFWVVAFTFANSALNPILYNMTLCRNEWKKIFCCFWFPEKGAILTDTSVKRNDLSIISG
T1 sequence (P32121 whole entry partner): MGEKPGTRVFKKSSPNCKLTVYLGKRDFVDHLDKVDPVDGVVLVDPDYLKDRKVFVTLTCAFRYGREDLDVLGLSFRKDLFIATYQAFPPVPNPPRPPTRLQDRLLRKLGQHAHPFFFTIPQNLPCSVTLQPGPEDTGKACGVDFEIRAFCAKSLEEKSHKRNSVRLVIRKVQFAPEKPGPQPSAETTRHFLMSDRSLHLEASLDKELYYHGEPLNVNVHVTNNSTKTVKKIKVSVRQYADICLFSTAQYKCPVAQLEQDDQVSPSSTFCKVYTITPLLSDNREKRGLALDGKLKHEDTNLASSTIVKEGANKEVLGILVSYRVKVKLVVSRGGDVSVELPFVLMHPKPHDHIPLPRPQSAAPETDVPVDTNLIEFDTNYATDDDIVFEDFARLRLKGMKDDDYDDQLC

Molecule	EC50
3-(4-[[3-(4-chlorophenyl)-5-(trifluoromethyl)-1,2-thiazol-4-yl]methoxy]-3-methylphenyl)propanoic acid [Cpd 235]	0.322 µM
O=C(O)CCc1cc(F)c(OCc2c(-c3ncc(Cl)cc3F)nsc2C(F)(F)F)c(F)c1 [Cpd 153, 3-(4-((3-(5-chloro-3-fluoropyridin-2-yl)-5-(trifluoromethyl)isothiazol-4-yl)methoxy)-3,5-difluorophenyl)propanoic acid]	0.104 µM
O=C(O)CCc1cc(F)c(OCc2c(-c3ccc(Cl)c(F)c3)nsc2C(F)(F)F)c(F)c1F [Cpd 138, 3-(4-((3-(4-chloro-3-fluorophenyl)-5-(trifluoromethyl)isothiazol-4-yl)methoxy)-2,3,5-trifluorophenyl)propanoic acid]	0.161 µM
3-(4-[[3-(4-ethylphenyl)-5-(trifluoromethyl)-1,2-thiazol-4-yl]methoxy]-1-benzothiophen-7-yl)propanoic acid [Cpd 92]	0.031 µM
CCc1ccc(-c2cc(F)sc2COc2ccc(CCC(=O)O)c(C)c2C)cc1 [Cpd 1, 3-(4-[[3-(4-ethylphenyl)-5-fluorothiophen-2-yl]methoxy]-2,3-dimethylphenyl)propanoic acid]	0.205 µM
O=C(O)CCc1c(F)c(F)c(OCc2c(-c3ccc(Cl)cc3)nsc2C(F)(F)F)c(F)c1F [Cpd 152, 3-(4-((3-(4-chlorophenyl)-5-(trifluoromethyl)isothiazol-4-yl)methoxy)-2,3,5,6-tetrafluorophenyl)propanoic acid]	0.183 µM
Cc1c(CCC(=O)O)ccc(OCc2c(-c3ccc(Cl)cc3)nsc2C(F)(F)F)c1C [Cpd 142, 3-(4-((3-(4-chlorophenyl)-5-(trifluoromethyl)isothiazol-4-yl)methoxy)-2,3-dimethylphenyl)propanoic acid]	0.1 µM
3-(4-[[3-(4-ethylphenyl)-5-(trifluoromethyl)-1,2-thiazol-4-yl]methoxy]-3,5-difluorophenyl)propanoic acid [Cpd 70]	0.068 µM
O=C(O)CCc1cc(F)c(OCc2c(-c3ccc(Cl)cc3)nsc2C(F)(F)F)c(F)c1 [Cpd 79, 3-(4-[[3-(4-chlorophenyl)-5-(trifluoromethyl)-1,2-thiazol-4-yl]methoxy]-3,5-difluorophenyl)propanoic acid]	0.062 µM
OCC#Cc1cc(F)c(OCc2c(-c3ccc(Cl)cc3)nsc2C(F)(F)F)c(F)c1 [Cpd 213, 3-(4-[[3-(4-chlorophenyl)-5-(trifluoromethyl)-1,2-thiazol-4-yl]methoxy]-3,5-difluorophenyl)prop-2-yn-1-ol]	0.087 µM
Cc1c(CCC(=O)O)ccc(OCc2sc(F)cc2-c2ccc(Cl)cc2)c1C [Cpd 3, 3-(4-((3-(4-chlorophenyl)-5-fluorothiophen-2-yl)methoxy)-2,3-dimethylphenyl)propanoic acid]	0.083 µM
Cc1ccccc1-c1snc(Cl)c1COc1c(F)cc(CCC(=O)O)cc1F [Cpd 193, 3-(4-[[3-chloro-5-(2-methylphenyl)-1,2-thiazol-4-yl]methoxy]-3,5-difluorophenyl)propanoic acid]	0.99 µM
O=C(O)CCc1cc(F)c(OCc2c(-c3ccc(Cl)cc3F)nsc2C(F)(F)F)c(F)c1 [Cpd 74, 3-(4-((3-(4-chloro-2-fluorophenyl)-5-(trifluoromethyl)isothiazol-4-yl)methoxy)-3,5-difluorophenyl)propanoic acid]	0.063 µM
Cc1c(CCC(=O)O)ccc(OCc2c(-c3ncc(Cl)cc3F)nsc2C(F)(F)F)c1C [Cpd 180, 3-(4-((3-(5-chloro-3-fluoropyridin-2-yl)-5-(trifluoromethyl)isothiazol-4-yl)methoxy)-2,3-dimethylphenyl)propanoic acid]	0.294 µM
O=C(O)CCc1cc(F)c(OCc2c(-c3ccc(Cl)c(F)c3)nsc2C(F)(F)F)c(F)c1 [Cpd 67, 3-(4-((3-(4-chloro-3-fluorophenyl)-5-(trifluoromethyl)isothiazol-4-yl)methoxy)-3,5-difluorophenyl)propanoic acid]	0.043 µM
O=C(O)CCc1cc(F)c(OCc2c(C3CCCC3)nsc2C(F)(F)F)c(F)c1 [Cpd 71, 3-(4-[[3-cyclopentyl-5-(trifluoromethyl)-1,2-thiazol-4-yl]methoxy]-3,5-difluorophenyl)propanoic acid]	0.139 µM
CCc1cc(CCC(=O)O)ccc1OCc1c(-c2ccc(Cl)cc2)nsc1C(F)(F)F [Cpd 162, 3-(4-[[3-(4-chlorophenyl)-5-(trifluoromethyl)-1,2-thiazol-4-yl]methoxy]-3-ethylphenyl)propanoic acid]	0.054 µM
Cc1c(CCC(=O)O)ccc(OCc2c(-c3ccccc3)nsc2C(F)(F)F)c1C [Cpd 134, 3-(2,3-dimethyl-4-[[3-phenyl-5-(trifluoromethyl)-1,2-thiazol-4-yl]methoxy]phenyl)propanoic acid]	0.409 µM
OCCCc1cc(F)c(OCc2c(-c3ccc4c(c3)OCO4)nsc2C(F)(F)F)c(F)c1 [Cpd 93, 3-(4-[[3-(2H-1,3-benzodioxol-5-yl)-5-(trifluoromethyl)-1,2-thiazol-4-yl]methoxy]-3,5-difluorophenyl)propan-1-ol]	0.027 µM
OCCCc1cc(F)c(OCc2c(-c3ccc4c(c3)OCO4)csc2C(F)(F)F)c(F)c1 [Cpd 37, 3-(4-((4-(benzo[d][1,3]dioxol-5-yl)-2-(trifluoromethyl)thiophen-3-yl)methoxy)-3,5-difluorophenyl)propan-1-ol]	0.022 µM
Cc1ccc(-c2nsc(C(F)(F)F)c2COc2c(F)cc(CC(C)C(=O)O)cc2F)c(F)c1 (stereo not drawn) [Cpd 76, 3-(3,5-difluoro-4-[[3-(2-fluoro-4-methylphenyl)-5-(trifluoromethyl)-1,2-thiazol-4-yl]methoxy]phenyl)-2-methylpropanoic acid]	0.179 µM
Cc1ccc(-c2nsc(C(F)(F)F)c2COc2c(F)cc(CCC(=O)O)cc2F)c(F)c1 [Cpd 65, 3-(3,5-difluoro-4-[[3-(2-fluoro-4-methylphenyl)-5-(trifluoromethyl)-1,2-thiazol-4-yl]methoxy]phenyl)propanoic acid]	0.126 µM
O=C(O)CCc1cc(F)c(OCc2c(-c3ccc(Cl)cc3)nsc2C(F)(F)F)c(F)c1F [Cpd 116, 3-(4-((3-(4-chlorophenyl)-5-(trifluoromethyl)isothiazol-4-yl)methoxy)-2,3,5-trifluorophenyl)propanoic acid]	0.088 µM
CC(Cc1cc(F)c(OCc2c(-c3ccc(Cl)cc3)nsc2C(F)(F)F)c(F)c1)C(=O)O (stereo not drawn) [Cpd 108, 3-(4-[[3-(4-chlorophenyl)-5-(trifluoromethyl)-1,2-thiazol-4-yl]methoxy]-3,5-difluorophenyl)-2-methylpropanoic acid]	0.162 µM
